According to patent US20130085146A1, “LIPID-DRUG FORMULATIONS AND METHODS FOR TARGETED DELIVERY OF LIPID-DRUG COMPLEXES TO LYMPHOID TISSUES” (priority 2003, published 2013):
pEC50: −log10 of the molar value. “Also recorded” adds a separate entry of the source. Counter-ions that a name gives are not always drawn. Like-named read-outs stand apart in the source and are kept apart here. One block for each molecule: values may come before it.

Tests used:
[1] = Degree of drug incorporation into lipid-drug complex (size-exclusion chromatography); assay type: physicochemical; settings: for Degree of Lipid Association (% total): drug associated with lipid membranes, pH 7.4
Protocol: (§1) The mixture was rotor-evaporated under N2 and reduced pressure. Then it was resuspended in sterile phosphate-buffered saline (PBS, pH 7.4), to a final lipid concentration of 50 mM, and homogenized with a probe sonicator until a uniform particle size of about 50 nm to about 80 nm diameter was reached. Sonication is preferably done until sonicated unilamellar vesicles that are stable at their minimum diameter are obtained. […] The size and zeta potential (surface potential at hydrodynamic plane) of the lipid-drug complex was monitored using a Malvern Zetasizer 5000 operating at photon correlation spectroscopy mode and electrophoretic mode, respectively. […] The rest of the preparation procedure remains the same.
The degree of drug incorporation into the lipid-drug complex was determined by subjecting a small fraction of the preparation to size-exclusion chromatography using a Biogel A-0.5 M media (1×10 cm). […] By analyzing the amount of fraction in the lipid-associated complex, and free form with respect to the total amount loaded onto the column, the percentage of drug association was determined. (Lian, T. and Ho, R. J. Y., Recent trend and progress in liposome drug delivery systems; an invited minireview, J Pharm Sci 90:667-680 [2001]). To determine pH-dependent drug dissociation from the lipid-drug complex, the lipid-drug complex (originally prepared in pH 7.4 and free of unincorporated drug) can be incubated at, e.g., pH 7, 6, 5.5, 5, 4, 3.5 for 30 min. Subsequently, the mixture can be subjected to the degree of drug incorporation analysis described above. For animal studies, the drug-lipid complex formulations were further analyzed for sterility and endotoxin contamination. To ensure sterility and prevent underestimation of endotoxin that binds to lipids, the lipid-drug complex preparations were subjected to a blood agar culture test for 7 days at 37° C. for detection of microbial contamination.
Subsequently, the % lipid-association was determined by separating free from lipid-associated drug by size-exclusion column chromatography. Data expressed were means of duplicate preparations for indicated pH value.

[2] = cited from earlier work
[3] = Particle size of lipid-drug complex (photon correlation spectroscopy); assay type: physicochemical; settings: drug associated with lipid membranes, pH 7.4
Protocol: as §1

HIV-2287 [4] = assay: In situ hybridization of lymph node sections for HIV-2 RNA; assay type: in vivo, Macaca nemestrina; settings: for viral RNA in lymph nodes: 20 mg/kg for 14 days, necropsy day 20
Protocol: Histological analysis of HIV-infected cells: Histologic sections of lymph node were examined using in situ hybridization for HIV-2 gag RNA. Biopsy and postmortem tissues were preserved in fresh 4% deionized paraformaldehyde, embedded in paraffin wax, and sectioned to 5 μm. The sections were deparaffinized, rehydrated in Tris-buffered saline (TBS; 0.1 M Tris [pH 7.5], 0.1 M NaCl), digested with proteinase K (20-40 μg/ml, 37° C., for 30-50 min; Sigma), and treated overnight at 37° C. in a RNase-free DNase-1 solution (Boehringer Mannheim), as described previously.
The sections were then incubated for 5 min at 70° C. followed by 4 h at 42° C. with antisense RNA probes directed either to SW (strain mac251; Zhang Z Q, Schuler T, Cavert W, et al. Reversibility of the pathological changes in the follicular dendritic cell network with treatment of HIV-1 infection. Proc Nati Acad Sci U S A 1999;96 (9):5169-72) or HIV-2 gag-pol (stain 287; gag 2639-1080, pol 3473-2306; Galabru J, Rey-Cuille M A, Hovanessian A G. Nucleotide sequence of the HIV-2 EHO genome, a divergent HIV-2 isolate. AIDS Res Hum Retroviruses 1995;11 [7]:873-4). The RNA probes were constructed by cloning cDNA into transcription vectors under the control of T7 and SP6 RNA polymerase promoters (pGEM, Promega; Madison, Wis.). […] HIV-2 RNA was detected after autoradiographic exposures of 24 and 96 h.
The presence of viral RNA was indicated by deposition of silver grains on top of cells or as aggregates within lymph node germinal centers (FIG. 7) at a frequency statistically greater than background, as determined using Image-Pro® Plus software (Media Cybernetics, Silver Spring, Md.). Nonspecific background was determined in two ways with equivalent results. Silver grains were counted over 100 germinal center cells in tissue sections from mock-inoculated uninfected animals after hybridization to the HIV-2 or SIV antisense probe, or over cells from the tissues of infected monkeys after hybridization to noncomplimentary ‘sense’ RNA probes. […]

HIV-2287 [5] = assay type: in vivo, Macaca nemestrina; settings: for CD4+ T cell, After: after therapy; for CD4+ T cell, After / CD4+ T cell, Before: SC 22 mg/kg daily, 14 doses; for CD4+ T cell, Before: before therapy
Protocol: Total RNA was isolated from plasma and lymphoid tissues using a Purescript RNA Isolation Kit (Gentra Systems, Minneapolis, Minn.). Viral RNA was measured using a quantitative, internally-controlled RNA PCR to estimate the number of HIV-2 copies/ml of sample (Watson A, Ranchalis J, Travis B, et al., Plasma viremia in macaques infected with simian immunodeficiency virus: plasma viral load early in infection predicts survival, J Virol 1997;71 (1):284-90) for some of the experiments and real-time quantitative PCR. The two methods have been validated to ensure consistency in estimating viral RNA concentration in plasma and tissues. Briefly, reverse transcription and PCR were performed as described. Because semi-quantitative methods have been well-documented (Watson, et al., 1997), only details on RT-QPCR are described below.
Lymphocyte subset analysis: Fluorescent labeled monoclonal antibodies to lymphocyte surface markers were used to quantitate populations of T cells (CD2+), helper T cells (CD4^+), suppressor T cells (CD8^+), and B cells (CD20^+) in maternal (1 ml) and fetal (150 μl) blood using procedures previously described (Ho R J, Agy M B, Morton W R, et al. Development of a chronically catheterized maternal-fetal macaque model to study in utero mother-to-fetus HIV transmission: a preliminary report. J Med Primatol 1996;25 (3):218-24).
Plasma cholesterol level was monitored to evaluate the effects of cholesterol given as a part of lipid formulation.

HIV-1LAV = assay: Inhibition of HIV-1LAV replication in human PBMCs (p24 antigen); assay type: cell-based; settings: Human immunodeficiency virus 1, PBMC
Protocol: (§2) The effective concentrations that produce half the maximum anti-HIV activity (EC50) were determined based on non-linear regression of each set of data, representing the frequency of replication.

[6] = Example 10; SC 20 mg/kg/day, two animals
HIV-2287 [7] = assay: microbe, parasite or virus in culture; assay type: cell-based, HIV-2
Protocol: as §2
After incubating the cells at 37° C. in RPMI 1640 containing 10% fetal calf serum for 4 days (optimum detection time), the presence of virus-infected cells was determined visually by the presence of syncytia and was subsequently confirmed by ELISA detection of the presence of HIV-2 antigen. Experiments were repeated on at least two different days with each determination done in quadruplicate samples, and the data presented in FIG. 3 are the mean % virus-infected cells.

[8] = SC 10 mg/kg single dose
Protocol: These samples were resuspended in 100 μL, and a 10 μL sample was injected onto an RX-C8 column (21 mm×15 cm column) and eluted isocratically with a mobile phase containing 20 mM ammonium acetate in acetonitrile:water (65:35, v/v) running at 0.38 ml/min. […] Under these conditions, the detection limit was 100 pg, which made it possible to measure drug levels, extract RNA and DNA, isolate cells for detailed analyses of vRNA and vDNA-infected cells in lymph nodes, and fix the tissue for pathological analyses from limited sample size.

[9] = cited from earlier work; remark: listed apart in the source
[10] = Indinavir accumulation in lymph nodes after oral free indinavir; assay type: in vivo, macaques; settings: macaque; for Kp at […]: po, 25 mg/kg; for Kp at […] / Kp at 2 hr / Kp at 3.75 hr: read-out: Lymph node to plasma ratio; for Kp at 2 hr / Kp at 3.75 hr: oral 25 mg/kg; for Kp at 2 hr / concentration at 2 hr: animal 94094; for Kp at 3.75 hr / concentration at 3.75 hr: animal 94096; for concentration at 2 hr / concentration at 3.75 hr: oral 25 mg/kg in solution
[11] = axillary lymph node / plasma, axillary
[12] = inguinal lymph node / plasma, inguinal
[13] = neutral pH, listed as tenofovir

% Associated with lipid-drug nanoparticles: Nelfinavir ([1]; DSPC:mPE-DSPE formulation): 100 ± 9.8% | Degree of Lipid Association (% total) [1]: 100.5 ± 9.8 % total | Size in Diameter [3]: 123 ± 16 nm
Structure (SMILES): Cc1c(O)cccc1C(=O)N[C@@H](CSc1ccccc1)[C@H](O)CN1C[C@H]2CCCC[C@H]2C[C@H]1C(=O)NC(C)(C)C (relative stereo) [Nelfinavir, [3S-[2(2S*, 3S*), 3a,4ab,8ab]]-N-(1,1-dimethylethyl)decahydro-2-[2-hydroxy-3-[(3-hydroxy-2-methylbenzoyl)amino]-4-(phenylthio)butyl]-3-isoquinolinecarboxamide mono-methanesulfonate (salt)]
incorporation into lipid-drug complexes (in words) ([1]; neutral pH): incorporate nearly completely; also recorded: high degree of lipid association | solubility in methanol, ethanol, isopropanol and propylene glycol [2]: freely soluble | solubility in water ([2]; pH<4): slightly soluble

Structure (SMILES): CC(C)(C)NC(=O)[C@@H]1CN(Cc2cccnc2)CCN1C[C@@H](O)C[C@@H](Cc1ccccc1)C(=O)N[C@H]1c2ccccc2C[C@H]1O [Indinavir, N-(2(R)-hydroxy-1(S)-indanyl)-2(R)-phenylmethyl-4-(S)-hydroxy-5-(1-(4-(3-pyridyl-methyl)-2(S)-N′-(t-butylcarboxamido)-piperazinyl))-pentaneamide]
% Associated with lipid-drug nanoparticles: Indinavir ([1]; DSPC:mPE-DSPE formulation): 97.5 ± 2.50% | Degree of Lipid Association (% total) [1]: 97.5 ± 2.5 % total | incorporation into lipid-drug complexes (in words) ([1]; neutral pH): completely or nearly completely; also recorded: incorporate nearly completely | indinavir preparation incorporated in lipid-indinavir complex ([1]; neutral pH, lipid-to-drug molar ratio about 5:1 to about 10:1): 80-100% | drug incorporated into the lipid bilayer of liposomes ([1]; pH 4, lipid-to-drug ratio 5:1 (m/m)): < 30% | drug associated with liposome ([1]; pH 7.4, lipid-to-drug ratio 5:1 (m/m)): 85-95% | HIV-2 RNA in lymph node germinal centers (in words) (HIV-2287 [4]; axillary and mesenteric lymph nodes): showed aggregates of HIV-RNA in lymph node germinal centers | viral RNA in lymph nodes (HIV-2287 [4]; macaque 215): 13,290±1,450 gag-pol RNA copies/50× field | viral RNA in lymph nodes (HIV-2287 [4]; macaque 283): 8,134±890 gag-pol RNA copies/50× field | plasma virus load (HIV-2287 [5]; Example 10: SC 20 mg/kg/day for 14 days, 30 weeks post-infection): did not exhibit a significant virus load reduction | CD4+ T cells after two weeks of treatment (in words) (HIV-2287 [5]; four HIV-2287-infected animals, Table 5): the same pattern was not observed | CD4+ T cell, After (HIV-2287 [5]; macaque 215): 1473 per μL | CD4+ T cell, Before (HIV-2287 [5]; macaque 215): 1946 per μL | CD4+ T cell, After (HIV-2287 [5]; macaque 283): 1051 per μL | CD4+ T cell, Before (HIV-2287 [5]; macaque 283): 1650 per μL | pEC50 (HIV-1LAV; CD8-depleted human PBMCs, HIV-1 p24 antigen): < 6.82 | inhibition at 15 µM (HIV-1LAV; at 15 μM): < 100% | time by which drug levels subsided below detectable levels [6]: 4 to 5 h | pEC50 (HIV-2287 [7]; Human immunodeficiency virus 2, CEM174, 96 h, read-out: EC50 (50% effective inhibitory concentration)): 7.10 to 7.30 | pEC50 (HIV-2287 [7]; Human immunodeficiency virus 2, CEM174, read-out: in vitro ED50 against HIV-2287): 7.10 to 7.22 | time of plasma drug concentration peak [8]: 0.5 to 1 h | Size in Diameter [3]: 69 ± 7 nm | LogP (lipophilicity) ([9]; pH 3.5): 0 | LogP (lipophilicity) ([9]; pH 5): 1.8 | LogP (lipophilicity) ([9]; pH 7): 3 | Kp at […] ([10]; axillary lymph node / plasma): 0.01 | Kp at 2 hr [10, 11]: 0.02 | Kp at 3.75 hr [10, 11]: 0.0035 | concentration at 2 hr ([10]; axillary lymph node, axillary): 0.084 ng/mL | concentration at 3.75 hr ([10]; axillary lymph node, axillary): 0.141 ng/mL | Kp at […] ([10]; inguinal lymph node / plasma): 0.03 | Kp at 2 hr [10, 12]: 0.01 | Kp at 3.75 hr [10, 12]: 0.01 | concentration at 2 hr ([10]; inguinal lymph node, inguinal): 0.056 ng/mL | concentration at 3.75 hr ([10]; inguinal lymph node, inguinal): 0.481 ng/mL | concentration at 2 hr ([10]; plasma): 5.2 ng/mL | concentration at 3.75 hr ([10]; plasma): 39.8 ng/mL

% Associated with lipid-drug nanoparticles: Lopinavir ([1]; DSPC:mPE-DSPE formulation): 100 ± 0.9%
Structure (SMILES): Cc1cccc(C)c1OCC(=O)N[C@@H](Cc1ccccc1)[C@@H](O)C[C@H](Cc1ccccc1)NC(=O)[C@H](C(C)C)N1CCCNC1=O [Lopinavir]

% Associated with lipid-drug nanoparticles: Ritonavir ([1]; DSPC:mPE-DSPE formulation): 100 ± 1.0%
Structure (SMILES): CC(C)c1nc(CN(C)C(=O)N[C@H](C(=O)N[C@@H](Cc2ccccc2)C[C@H](O)[C@H](Cc2ccccc2)NC(=O)OCc2cncs2)C(C)C)cs1 [Ritonavir]

% Associated with lipid-drug nanoparticles: Saquinavir ([1]; DSPC:mPE-DSPE formulation): 98.9 ± 7.5% | Degree of Lipid Association (% total) [1]: 98.8 ± 7.5 % total | Size in Diameter [3]: 159 ± 36 nm
Structure (SMILES): CC(C)(C)NC(=O)[C@@H]1C[C@@H]2CCCC[C@@H]2CN1C[C@@H](O)[C@H](Cc1ccccc1)NC(=O)[C@H](CC(N)=O)NC(=O)c1ccc2ccccc2n1 [Saquinavir, N-tert-butyl-decahydro-2-[2(R)-hydroxy-4-phenyl-3(S)-[[N-(2-quinolylcarbonyl)-L-asparaginyl]-amino]butyl]-(4aS,8aS)-isoquinoline-3 (S)-carboxamide]
incorporation into lipid-drug complexes (in words) ([1]; neutral pH): incorporate nearly completely; also recorded: high degree of lipid association

Structure (SMILES): C[C@H](Cn1cnc2c(N)ncnc21)OCP(=O)(O)O [Tenofovir]
incorporation into lipid-drug complexes (in words) ([1]; neutral pH): quite low efficiency | incorporation into lipid-drug complexes (in words) [1, 13]: much lower efficiency | solubility in water ([2]; neutral pH): soluble in water | solubility in water [2, 13]: quite soluble

Degree of Lipid Association (% total) [1]: 4.2 ± 0.7 % total | Size in Diameter [3]: 60 ± 10 nm
Structure (SMILES): CC(C)OC(=O)OCOP(=O)(CO[C@H](C)Cn1cnc2c(N)ncnc21)OCOC(=O)OC(C)C.O=C(O)/C=C/C(=O)O [Viread ®, 9-[(R)-2-[[bis[[(isopropoxycarbonyl)oxy]methoxy]phosphinyl]methoxy]propyl]adenine fumarate (1:1)]

incorporation into lipid-drug complexes (in words) ([1]; neutral pH): completely or nearly completely
Structure (SMILES): O=C(O)CN(CC(=O)O)Cc1cc2c(cc1O)Oc1cc(O)c(CN(CC(=O)O)CC(=O)O)cc1C21OC(=O)c2ccccc21 [calcein]
